Measurements taken from PubChem BioAssay (NCI).
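Abbreviation: GI50, concentration required for 50% inhibition of growth. Definition used: TGI = concentration required for complete inhibition of growth.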

What was measured:
Assay in all cases: DTP human tumour cell line panel, 384-well format
SK-MEL-2 melanoma = tested on: SK-MEL-2 melanoma
SK-MEL-28 melanoma = tested on: SK-MEL-28 melanoma
NCI-H226 lung = tested on: NCI-H226 lung
MOLT-4 leukemia = tested on: MOLT-4 leukemia
UACC-257 melanoma = tested on: UACC-257 melanoma
IGROV1 ovarian = tested on: IGROV1 ovarian
HL-60(TB) leukemia = tested on: HL-60(TB) leukemia
TK-10 renal = tested on: TK-10 renal
MCF7 breast = tested on: MCF7 breast
NCI-H522 lung = tested on: NCI-H522 lung
SF-539 CNS = tested on: SF-539 CNS
K-562 leukemia = tested on: K-562 leukemia
ACHN renal = tested on: ACHN renal
HCC-2998 colon = tested on: HCC-2998 colon
RXF 393 renal = tested on: RXF 393 renal
NCI-H23 lung = tested on: NCI-H23 lung
HCT-15 colon = tested on: HCT-15 colon
MDA-MB-468 breast = tested on: MDA-MB-468 breast
A498 renal = tested on: A498 renal
KM12 colon = tested on: KM12 colon
PC-3 prostate = tested on: PC-3 prostate
HT29 colon = tested on: HT29 colon
NCI/ADR-RES ovarian = tested on: NCI/ADR-RES ovarian
BT-549 breast = tested on: BT-549 breast
SK-MEL-5 melanoma = tested on: SK-MEL-5 melanoma
CAKI-1 renal = tested on: CAKI-1 renal
M14 melanoma = tested on: M14 melanoma
UO-31 renal = tested on: UO-31 renal
SK-OV-3 ovarian = tested on: SK-OV-3 ovarian
MDA-MB-231 breast = tested on: MDA-MB-231 breast
HCT-116 colon = tested on: HCT-116 colon
SN12C renal = tested on: SN12C renal
OVCAR-3 ovarian = tested on: OVCAR-3 ovarian
NCI-H460 NSCLC = tested on: NCI-H460 NSCLC
CCRF-CEM leukemia = tested on: CCRF-CEM leukemia
UACC-62 melanoma = tested on: UACC-62 melanoma
SF-268 CNS = tested on: SF-268 CNS
SW-620 colon = tested on: SW-620 colon
HOP-62 NSCLC = tested on: HOP-62 NSCLC
LOX IMVI melanoma = tested on: LOX IMVI melanoma
U251 glioblastoma = tested on: U251 glioblastoma
DU-145 prostate = tested on: DU-145 prostate
A549 NSCLC = tested on: A549 NSCLC
T-47D breast = tested on: T-47D breast
NCI-H322M lung = tested on: NCI-H322M lung
MDA-MB-435 melanoma = tested on: MDA-MB-435 melanoma
SR leukemia = tested on: SR leukemia
SF-295 CNS = tested on: SF-295 CNS
RPMI-8226 leukemia = tested on: RPMI-8226 leukemia
COLO 205 colon = tested on: COLO 205 colon
786-0 renal = tested on: 786-0 renal
OVCAR-5 ovarian = tested on: OVCAR-5 ovarian
SNB-19 CNS = tested on: SNB-19 CNS
MALME-3M melanoma = tested on: MALME-3M melanoma

`COc1cc2nccc(Oc3ccc(NC(=O)c4cn(C(C)C)c(=O)n(-c5ccc(F)cc5)c4=O)cc3F)c2cc1OC` showed a GI50 (SK-MEL-2 melanoma) of 2.29 µM, a TGI (SK-MEL-2 melanoma) of 9.87 µM and a GI50 (SK-MEL-28 melanoma) of 2.97 µM. The TGI (SK-MEL-28 melanoma) was over 100 µM, the GI50 (NCI-H226 lung) was 3.81 µM and the TGI (NCI-H226 lung) was 61.4 µM. The GI50 (MOLT-4 leukemia) was 0.407 µM, the TGI (MOLT-4 leukemia) was 4.2 µM and the GI50 (UACC-257 melanoma) was 2.33 µM. For the same molecule, the TGI (UACC-257 melanoma) was 8.74 µM, the GI50 (IGROV1 ovarian) was 5.5 µM and the TGI (IGROV1 ovarian) was over 100 µM. For the same molecule, the GI50 (HL-60(TB) leukemia) was 2.6 µM, the TGI (HL-60(TB) leukemia) was over 100 µM and the GI50 (TK-10 renal) was 96.6 µM. It also gave a TGI (TK-10 renal) of over 100 µM, a GI50 (MCF7 breast) of 7.28 µM and a TGI (MCF7 breast) of over 100 µM. It also gave a GI50 (NCI-H522 lung) of 1.65 µM, a TGI (NCI-H522 lung) of 5.66 µM and a GI50 (SF-539 CNS) of 1.3 µM. It also gave a TGI (SF-539 CNS) of 2.85 µM, a GI50 (K-562 leukemia) of 0.0235 µM and a TGI (K-562 leukemia) of 0.137 µM. It also gave a GI50 (ACHN renal) of 1.75 µM, a TGI (ACHN renal) of 5.13 µM and a GI50 (HCC-2998 colon) of over 100 µM. The TGI (HCC-2998 colon) was over 100 µM, the GI50 (RXF 393 renal) was 0.63 µM and the TGI (RXF 393 renal) was 4.89 µM. The GI50 (NCI-H23 lung) was 0.0469 µM, the TGI (NCI-H23 lung) was over 100 µM and the GI50 (HCT-15 colon) was over 100 µM. The TGI (HCT-15 colon) was over 100 µM, the GI50 (MDA-MB-468 breast) was 6.91 µM and the TGI (MDA-MB-468 breast) was over 100 µM. The GI50 (A498 renal) was 3.41 µM, the TGI (A498 renal) was over 100 µM and the GI50 (KM12 colon) was 0.0315 µM. For the same molecule, the TGI (KM12 colon) was over 100 µM, the GI50 (PC-3 prostate) was 18.4 µM and the TGI (PC-3 prostate) was over 100 µM. It also gave a GI50 (HT29 colon) of 7.99 µM, a TGI (HT29 colon) of over 100 µM and a GI50 (NCI/ADR-RES ovarian) of over 100 µM. The TGI (NCI/ADR-RES ovarian) was over 100 µM, the GI50 (BT-549 breast) was 5.27 µM and the TGI (BT-549 breast) was over 100 µM. It also gave a GI50 (SK-MEL-5 melanoma) of 4.94 µM, a TGI (SK-MEL-5 melanoma) of over 100 µM and a GI50 (CAKI-1 renal) of 1.46 µM. The TGI (CAKI-1 renal) was 2.81 µM, the GI50 (M14 melanoma) was 82.6 µM and the TGI (M14 melanoma) was over 100 µM. For the same molecule, the GI50 (UO-31 renal) was 0.246 µM, the TGI (UO-31 renal) was 0.65 µM and the GI50 (SK-OV-3 ovarian) was 5.58 µM. It also gave a TGI (SK-OV-3 ovarian) of over 100 µM, a GI50 (MDA-MB-231 breast) of 3.06 µM and a TGI (MDA-MB-231 breast) of over 100 µM. It also gave a GI50 (HCT-116 colon) of 5.93 µM, a TGI (HCT-116 colon) of over 100 µM and a GI50 (SN12C renal) of 0.642 µM. The TGI (SN12C renal) was over 100 µM, the GI50 (OVCAR-3 ovarian) was over 100 µM and the TGI (OVCAR-3 ovarian) was over 100 µM. For the same molecule, the GI50 (NCI-H460 NSCLC) was 4.01 µM, the TGI (NCI-H460 NSCLC) was over 100 µM and the GI50 (CCRF-CEM leukemia) was over 100 µM. The TGI (CCRF-CEM leukemia) was over 100 µM, the GI50 (UACC-62 melanoma) was 4.5 µM and the TGI (UACC-62 melanoma) was over 100 µM. For the same molecule, the GI50 (SF-268 CNS) was 3.37 µM, the TGI (SF-268 CNS) was over 100 µM and the GI50 (SW-620 colon) was 9.13 µM. It also gave a TGI (SW-620 colon) of over 100 µM, a GI50 (HOP-62 NSCLC) of 15 µM and a TGI (HOP-62 NSCLC) of over 100 µM. The GI50 (LOX IMVI melanoma) was over 100 µM, the TGI (LOX IMVI melanoma) was over 100 µM and the GI50 (U251 glioblastoma) was over 100 µM. It also gave a TGI (U251 glioblastoma) of over 100 µM, a GI50 (DU-145 prostate) of over 100 µM and a TGI (DU-145 prostate) of over 100 µM. The GI50 (A549 NSCLC) was 4.67 µM, the TGI (A549 NSCLC) was over 100 µM and the GI50 (T-47D breast) was 1.5 µM. For the same molecule, the TGI (T-47D breast) was 6.25 µM, the GI50 (NCI-H322M lung) was over 100 µM and the TGI (NCI-H322M lung) was over 100 µM. It also gave a GI50 (MDA-MB-435 melanoma) of over 100 µM, a TGI (MDA-MB-435 melanoma) of over 100 µM and a GI50 (SR leukemia) of 2.69 µM. The TGI (SR leukemia) was 20.6 µM, the GI50 (SF-295 CNS) was 0.271 µM and the TGI (SF-295 CNS) was over 100 µM. For the same molecule, the GI50 (RPMI-8226 leukemia) was 3.95 µM, the TGI (RPMI-8226 leukemia) was over 100 µM and the GI50 (COLO 205 colon) was over 100 µM. The TGI (COLO 205 colon) was over 100 µM, the GI50 ([…]-0 renal) was 18.9 µM and the TGI (786-0 renal) was over 100 µM. For the same molecule, the GI50 (OVCAR-5 ovarian) was over 100 µM, the TGI (OVCAR-5 ovarian) was over 100 µM and the GI50 (SNB-19 CNS) was over 100 µM. It also gave a TGI (SNB-19 CNS) of over 100 µM, a GI50 (MALME-3M melanoma) of 2.85 µM and a TGI (MALME-3M melanoma) of over 100 µM.
